Values of other authors as cited in paper PMC4862687, “GPCRs Direct Germline Development and Somatic Gonad Function in Planarians” (PLoS Biology, 2016).

Experiments:
pituitary-gonadal axis = conditions: intact rats; ref [55]; cited from earlier work
Excerpt: (§1) NPF expression in Drosophila brain is sexually dimorphic and is believed to be centrally involved in mating behavior [52]. Also, NPF-deficient flies show a decrease in egg laying capacity, but the same effect is not observed in NPFR-1-deficient flies. […] Conversely, in intact rats, NPY has an inhibitory effect ...

secretion of LH and GnRH = conditions: injection of NPY into sex steroid-primed ovariectomized rats; ref [53],[54]; cited from earlier work
Excerpt: as §1

GnRH neuronal output = system: GnRH neuronal output; parameters: method as in PMID 3131748, PMID 24221756; conditions: mammals and teleosts; ref [61],[62]; cited from earlier work

Question: What does the source list for neuropeptide Y [NPY]?
Answer: effect on reproduction / pituitary-gonadal axis (pituitary-gonadal axis): inhibitory effect on reproduction by suppressing the pituitary-gonadal axis; LH and GnRH secretion (secretion of LH and GnRH): induces secretion of LH and GnRH; GnRH neuronal output (GnRH neuronal output): positively modulates GnRH neuronal output
